Several values for one entry are separate records, joined by “and”; a condition that tells them apart may be missing. Equal entries are not always repeated. Activity calls are given as the source filed them.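 How the source made its calls: active means compounds giving half or more protection of infected cells from virus-caused growth loss, again on retest; inactive means the rest.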 Where a SMILES comes first, the peptide text is derived from it.
Test system: CEM cells HIV-1 protection, formazan growth assay
Assay: NCI AIDS Antiviral Assay
Details: for IC50: measured here: growth of uninfected CEM cells
Procedure: The ability of compounds to protect human CEM cells from HIV-1 infection is measured as a screen for new compounds capable of inhibiting the HIV virus. Five concentrations of drug were tested on uninfected and infected cells and cell growth was measured using a soluble formazan assay. […] Compounds that provided at least 50% protection were retested. Compounds that provided at least 50% protection on retest were listed as moderately active. Compounds that reproducibly provided 100% protection were listed as confirmed active. […] Note that the inability to provide protection could be due to toxicity.

SMILES | EC50 | IC50 | outcome
COc1cccc(C[C@H]2C(=O)OC[C@@H]2Cc2ccc(OC)c(OC)c2)c1 | > 200 µM | 57.5 µM | 
CC(=O)N(O)CCCCCNC(=O)CCC(=O)N(O)CCCCCNC(=O)CCC(=O)N(O)CCCCCN | > 110 µM | 4.57 µM and 3.63 µM | 
COC(=O)c1ccc(NCc2c(O)ccc(O)c2Br)cc1Cl | > 14.8 µM | 6.46 µM | 
CC(C)CCC[C@@H](C)C1CCC2[C@@H]3CC=C4C[C@@H](OC(=O)CCC(=O)NCC[N+](C)(C)CCCS(=O)(=O)[O-])CC[C@]4(C)C3CC[C@@]21C (some centres not stated) |  |  | inactive
COc1cc(C)cc2ccc(Br)c(O)c12 | > 200 µM | > 200 µM | 
NC(N)=NS(=O)(=O)c1ccc(Nc2c3ccccc3nc3c(C(=O)N4CCN(CCO)CC4)ccc(Cl)c23)cc1 | > 38 µM | > 38 µM | 
O=c1oc(C(C(F)(F)F)C(F)(F)F)nc2ccccc12 | > 200 µM | > 200 µM | 
COc1ccc(OC)c(/C=C/c2ccc3ccccc3n2)c1 | > 24.5 µM | > 24.5 µM | 
Brc1ccc(SSc2ccc(Br)cc2)cc1 | > 200 µM | 9.12 µM and 3.39 µM | 
Cc1cccc[c]1[Sb](=[O])([OH])[OH] |  |  | active
CCCCCCCCCCCCC1N=C(N)N2CCCC2=C1C(=O)OC (configuration not stated) | > 200 µM | 4.9 µM | 
COc1ccc(CSCc2cc(OC)c(OC)c(OC)c2)cc1 | > 200 µM | 25.7 µM | 
CN1CCC23CCCC[C@H]2C1CC1=C3CC(=O)CC1 (some centres not stated) | > 692 µM | 263 µM | 
COc1ccc2c(C)cc(N/N=C(\C)C=O)nc2c1 | > 200 µM | 4.07 µM | 
O=S(O)c1cc(Cl)c(O)c(Cl)c1 |  |  | inactive
CC1=N/C(=C\c2ccc(N)cc2)C(=O)N1Nc1nnc(NN2C(=O)/C(=C/c3ccc(N)cc3)N=C2C)c2ccccc12 |  |  | inactive
C=C1C(OC(=O)CC(c2ccccc2)N(C)C)C[C@H](OC(C)=O)[C@]2(C)C1C[C@@H]1CC(OC(C)=O)C(C)=C([C@@H](OC(C)=O)C2OC(C)=O)C1(C)C (some centres not stated) |  |  | inactive
Cc1cc(CC(O)(C(F)(F)F)C(F)(F)F)cc(CC(O)(C(F)(F)F)C(F)(F)F)n1 |  |  | inactive
COc1cc2c(c(OC)c1OC)C1CCCCC1SCC2O (configuration not stated) | > 398 µM | 77.6 µM | 
Nc1ncnc2c1ccn2COC(CO)CO | > 200 µM | > 200 µM | 
CSc1c(C(=O)Nc2ccc(C)cc2)c(N)[nH]c(=O)c1C#N | > 95.5 µM | 75.9 µM | 
CC(=O)/C(=C/n1c(=S)sc2ccccc21)C(=O)Nc1ccccc1 | > 200 µM | 138 µM | 

SMILES | EC50 | IC50 | outcome
NC(CO)C(=O)NC(CO)C(=O)NC(Cc1ccc(O)cc1)C(=O)NC(CO)C(=O)NC(CO)C(=O)O (configuration not stated) (H-SSYSS-OH; configuration not given here) | > 93.3 µM | > 93.3 µM | 
Cc1ccc(N=NC(C(=O)c2ccccc2)C(=O)c2ccccc2)cc1 | > 39.8 µM | 20 µM | 
c1ccc(COc2cccc3ccc[n+](Cc4ccccc4)c23)cc1 | > 251 µM | 4.68 µM | 
Cc1cc(O)c(C=O)c2c1C(=O)Oc1c(CO)c(O)c3c(c1O2)C(O)OC3=O (configuration not stated) | > 57.5 µM | > 57.5 µM | 
CC(=O)CC(c1ccc2c(c1)OCO2)c1c(O)c2ccccc2oc1=O (configuration not stated) | > 200 µM | 135 µM | 
O=C(NCCc1ccccc1)c1c(O)c2ccccc2[nH]c1=O | > 200 µM | > 200 µM | 
CCc1cccc(CC)c1NC(=O)C1=CNC(C)=C(C(=O)Nc2c(CC)cccc2CC)C1c1ccc(O)c(OC)c1 (configuration not stated) | > 63.1 µM | 49 µM | 
N#CC1=CNc2ccccc2N=C1N | > 200 µM | > 200 µM | 
CC(C)CC12CC3CCC(CNC1=O)C32C (configuration not stated) |  |  | inactive
O=C(c1ccc(F)cc1)c1cccc(C(=O)c2ccc(F)cc2)n1 | > 30.9 µM | > 30.9 µM | 
O=C(OCc1ccccc1)N1CC[C@@H](O)[C@H]1CO | > 200 µM | > 200 µM | 
N#Cc1nc(CCCCCN2C(=O)c3ccccc3C2=O)oc1N | > 200 µM | > 200 µM | 
CN(CC1=C(O)C(=O)C(CN(C)Cc2c(O)ccc3ccccc23)=C(O)C1=O)Cc1c(O)ccc2ccccc12 | > 17.4 µM | > 17.4 µM | 
CC#COP(=O)(OCC)OCC | > 251 µM | > 251 µM | 
CC(=O)Nc1ccc(S(=O)(=O)NN=C2CCCC2)cc1 | > 851 µM | 708 µM | 
Cc1cccc(C)c1NC(=O)C1C(=O)N(c2c(C)cccc2C)C(=O)/C1=N\NC(N)=S (configuration not stated) | > 22.9 µM | > 22.9 µM | 
CCOC(=O)/C(=C\c1ccccc1Cl)P(=O)(OCC)OCC | > 20.9 µM | 11.7 µM | 
CC(C)C(O)(C(=O)OCN1C(=O)C2C3C=CC(C2C1=O)C1C2C(=O)N(COC(=O)C(O)(C(C)C)C(C)O)C(=O)C2C31)C(C)O (configuration not stated) | > 200 µM | > 200 µM | 
c1ccc(C2CN=C(c3ccccn3)C(c3ccccn3)=N2)cc1 (configuration not stated) | > 60.3 µM | > 60.3 µM | 
CC(C)CC1=[N+]=C(NC#N)N=C(CCC(=O)Nc2ccccc2[N+](=O)[O-])C1 | > 676 µM | > 676 µM | 
O=C1OC(=O)c2cc(S(=O)(=O)c3ccc4c(c3)C(=O)OC4=O)ccc21 | > 200 µM | > 200 µM | 
C#CC1(O)c2ccccc2C(=O)c2ccccc21 |  |  | inactive

SMILES | EC50 | IC50 | outcome
O=C1CCC2(c3ccc(Cl)cc3)Nc3cc([N+](=O)[O-])ccc3N12 (configuration not stated) | > 21.9 µM | > 21.9 µM | 
C=CCNC(=S)/N=C1\N=S(C)(=O)c2ccccc21 (configuration not stated) | > 891 µM | > 891 µM | 
CO/C=C(/C#N)S(=O)(=O)/C(C#N)=C/OC | > 200 µM | > 200 µM | 
COC(=O)/C=C(\C(=O)OC)c1cc(C)c2cc(C(C)C)ccc(C)c1-2 | > 200 µM | 28.2 µM | 
COc1nc(N)c(NC2OCC(O)C(O)C2O)c(=O)n1C (configuration not stated) | 195 µM and 182 µM and > 200 µM | 603 µM and 224 µM and > 200 µM | 
Cc1ccc(NC(=O)CC/C(CC(=O)C(C)(C)C)=N/NC(=O)C[N+](C)(C)C)cc1C | > 209 µM | > 209 µM | 
CCOC(=O)/C(=C\n1c(=O)[nH]c(=O)[nH]c1=S)C(=O)c1ccccc1 |  |  | inactive
O=C1c2c(O)cccc2C(C(=O)CCCC(=O)C2c3cccc(O)c3C(=O)c3c(O)cccc32)c2cccc(O)c21 | > 4.79 µM | 0.794 µM | 
CCOC(=O)Nc1ccc2nc(-c3cscn3)[nH]c2c1 | > 457 µM | 1.66 µM | 
N.N.N.N.N.NC(=O)[O-].[Co+3].[I-] |  |  | inactive
Cc1cc(O)ccc1C1(c2ccc(F)cc2)OC(=O)c2ccccc21 (configuration not stated) |  |  | inactive
COc1ccc2c(O)c(S(=O)(=O)c3ccc(C)cc3)c(=O)oc2c1OC | > 100 µM | > 100 µM | 
COC1OC2COC(c3ccccc3)OC2C2OC(=S)OC12 (configuration not stated) |  |  | inactive
SC[C@@H]1COC[C@H](CS)S1 | > 95.5 µM | > 95.5 µM | 
Nc1cccc(P(N)(N)=O)c1 | > 200 µM | > 200 µM | 
COC1=CC(=O)c2c(cc3c(c2O)-c2c(OC)cc4cc5c(c(O)c4c2OC(=O)CC(C)(O)C3)C(=O)CC(C)(O)C5)C1=O (configuration not stated) | > 100 µM | 5.37 µM | 
CC1=CCN(C2CC(C)C(=O)N2)C1=O (configuration not stated) |  |  | inactive
C=C1C(=O)[C@]23C[C@H]1CC[C@H]2[C@@]12CO[C@@H](O)[C@@H]1C(C)(C)[C@@H](O)C[C@@H]2OC3=O | > 692 µM | 26.3 µM | 
Oc1ccccc1/C=N\NC(=S)Nc1ccc2cn[nH]c2c1 | > 200 µM | 126 µM | 
Nc1nc2c(ncn2Cc2ccccc2CCO)c(=O)[nH]1 | > 47.9 µM | > 47.9 µM | 
C/C(C=O)=N\Nc1cc(C)c2ccccc2n1 | > 200 µM | 9.55 µM | 
O=C1NC(N/N=C\c2ccccc2)=N/C1=C/c1ccc(Cl)cc1 |  |  | inactive

SMILES | EC50 | IC50 | outcome
CCOC(=O)N1CCN(Cc2cc(=O)n3cc(C)ccc3n2)CC1 | > 200 µM | > 200 µM | 
CC1CCCC2=C1C(c1ccc(Cl)cc1)n1c(s/c(=C\c3ccc(Cl)cc3)c1=O)=N2 (configuration not stated) |  |  | inactive
CCOC(=O)c1c(O)cc(=O)[nH]c1N1CCOCC1 | > 200 µM | > 200 µM | 
CCN(CC)C(=S)SSC(=S)N(CC)CC | > 200 µM | 44.7 µM | 
CSc1cccc(-n2c3nc(=O)n(C)c(=O)c-3nc3ccccc32)c1 |  |  | inactive
O=C1c2ccccc2C2(O)Nc3c(ccc4ccccc34)C12O (configuration not stated) | > 832 µM | 45.7 µM | 
Cc1ccc(C(=O)Oc2ccccc2)cc1N=NN(C)C | > 25.7 µM | > 25.7 µM | 
CC(C)(C)C(C)(C)SSC(C)(C)C(C)(C)C | > 200 µM | > 200 µM | 
C/C([O-])=c1\c(C)nn2ccc[n+]12 | > 309 µM | > 309 µM | 
CCOP(=O)(OCC)C(N)C(C)CC (configuration not stated) | > 479 µM | > 479 µM | 
Cc1ccc(C2CC(c3ccc([N+](=O)[O-])cc3)=Nc3ccccc3S2)cc1 (configuration not stated) | > 13.8 µM | 7.76 µM | 
O=C(O)CCSC(=S)Nc1ccc([N+](=O)[O-])cc1 |  |  | inactive
CCOC(=O)C1(Cc2ccccc2)Cc2cc3c(cc2C1)CCC3 | > 200 µM | 33.9 µM | 
Nc1ncnc2c1ncn2C1CC(CO)CO1 (configuration not stated) | 209 µM | 214 µM | 
Cc1ccc(-c2nn3c(-c4ccccc4)nnc3o2)cc1 | > 200 µM | 132 µM | 
COc1cc(CS(=O)c2ccc(O)cc2)cc(OC)c1OC (configuration not stated) | > 200 µM | > 200 µM | 
CS(=O)(=O)C(CC(S(C)(=O)=O)S(C)(=O)=O)S(C)(=O)=O | > 20.4 µM | > 20.4 µM | 
CCCC(=O)[O-].CCCC(=O)[O-].NCCN.NCCN.[Co+3].[O-][Cl+3]([O-])([O-])[O-] |  |  | inactive
CC1(C)OCC(C(O)C2OC(C)(C)OC2C=O)O1 (configuration not stated) | > 200 µM | > 200 µM | 
O=C(NNc1cn[nH]c(=O)c1Cl)/C(=C/c1ccc2c(c1)OCO2)NC(=O)c1ccccc1 | > 200 µM | 162 µM | 
COC(=O)CCCC=C(c1cc(Cl)c(OC)c(C2=NC(C)(C)CO2)c1)c1cc(Cl)c(OC)c(C2=NC(C)(C)CO2)c1 |  |  | inactive
Cc1cccc2c1Oc1ccccc1C2NC(=O)CN(C)C (configuration not stated) | > 437 µM | 83.2 µM | 

Source: PubChem BioAssay AID179 (DTP/NCI, 2004)
